Reference: PMC8635623, “A click chemistry approach to pleuromutilin derivatives, evaluation of anti-MRSA activity and elucidation of binding mode by surface plasmon resonance and molecular docking” (Journal of Enzyme Inhibition and Medicinal Chemistry, 2021)
In brackets after ≈: the same amount, converted by molar mass. Read-outs that look alike come from different tables or passages of the source.

What was measured:
MRSA ATCC 43300 [1] = experiment: MIC/MBC by broth micro dilution; type: cell-based, methicillin-resistant S. aureus; settings: for MIC: 37 °C, 24 h; for MBC: lowest concentration reducing viable counts by 99.9%
Procedure: (§1) All the synthesised 1,2,3-triazole linked pleuromutilin analogues were screened for in vitro antibacterial activities against methicillin-resistant S. aureus (ATCC 43300), S. aureus (ATCC 29213), and two clinical strains of S. aureus (AD3 and 144, isolated from Guangdong Province, China). The MICs and MBCs of the synthesised pleuromutilin derivatives along with pleuromutilin and tiamulin used as the reference antibacterial drugs, were determined by the broth micro dilution methods according to the Clinical and Laboratory Standards Institute (CLSI)[18].
(§2) The MIC of these novel pleuromutilin derivatives against methicillin-resistant S. aureus (ATCC 43300), S. aureus (ATCC 29213), S. aureus (AD3) and S. aureus (144) were determined by using pleuromutilin and tiamulin as positive control. MIC values were determined by the broth micro dilution methods in accordance with the Clinical and Laboratory Standards Institute (2012). Stock solutions of these compounds were dissolved in methanol to make a stock solution with a concentration of 1280 µg/mL. The working solutions (640 µg/mL) were obtained by diluting stock solutions in sterile Mueller-Hinton (MH) broth. The bacterial solution and solutions of these compounds with a final concentration of 0.016–32 µg/mL were distributed into 96-well plates, with a total volume of 200 µL. Three parallel experiments for each compound concentration. The plates were incubated at 37 °C for 24 h.
(§3) MBC values were determined according to CLSI (2003) and previously report with slightly modification[18]^,[28]^,[31]. After obtaining the MIC results, the 96-well plates were incubated at 37 °C for 24 h. 100 µL of the bacterial solution from the wells with no visible growth was inoculated on MH agar plates. The MH agar plates were incubated at 37 °C for colony count. The MBC was determined as the lowest concentration of compound, which reduces the viable counts for 99.9%.

MRSA ATCC 43300 [2] = experiment: Constant concentration time-kill curves; type: cell-based, methicillin-resistant S. aureus; settings: for time-kill kinetics result: 8 × MIC, cultured for 24 h; for concentration giving a bactericidal effect: time-kill, MRSA
Procedure: The time-kill kinetic approach was used to investigate the anti-MRSA activity of compounds 50, 62 and 64. The experimental results were presented in graphic form in Figure 2. Compared with growth control, compounds 50 and 62 inhibited the reproduction of bacteria to a certain extent.
The time-kill curve determination is an in vitro bactericidal kinetics model, which is used to study the sustained killing effect of bacteria within 24 h at a certain drug concentration. The bactericidal activity of compounds 50, 62 and 64 was determined by the time-kill curve as reported in our previous work[18]^,[22]. MRSA grown in MH broth were diluted to approximately 1 × 10^6 CFU/mL. […] 100 µL of samples were collected from the subculture inoculums before culture (0 h) and 3 h, 6 h, 9 h and 24 h after culture, and serially diluted 10-flod with sterile saline. The dilution of each gradient (25 µL) was uniformly suspended on the MH agar plates. The total bacterial CFU/mL on the plates were counted to calculate the bacterial colonies after up to 20 h of incubation at 37 °C. The results are represented by Mean ± SD, with the log10 CFU/mL of bacteria counts as the ordinate and time as the abscissa, the time-kill curves of different concentrations of compounds against MRSA were established respectively.

50S ribosome = experiment: SPR binding studies; design: species or system S. aureus; settings: for Ka (association rate constant) / Kd (dissociation rate constant): PBST pH 7.4, compound immobilised, 50S ribosome 200-3200 nM
Procedure: In order to gain some insight into the binding mode of the potent inhibitors, SPR experiments were performed. […] The response unit (RU) of surface resonance was compared to determine the different binding affinities between each compound and the 50S ribosome. The association rate constants (Ka) and dissociation rate constant (Kd) represent the rate of association and dissociation in the binding reaction, respectively. The equilibrium dissociation constant (KD) indicated the degree of dissociation of compounds and the 50S ribosome in the equilibrium state. Their binding curves during the experiment were shown in Figure 3, as well as the concentration gradient curves were shown in Figure SI 27–34.
SPR biosensing experiments were performed at 4 °C using the bScreen LB 991 Label-free Microarray System (Berthold Technologies, Germany) and the photo-cross-linker sensor chip. The BIODOT™ AD-1520 Array Printer (BIODOT Inc., USA) was used for printing samples and control on the chip surface. A UV Spectroirradiator 1020 (Amersham Life Science, USA) was used for the photo-cross-linking reaction quickly after the array print.
As described in the reference[32–34] with minor modifications, the ribosome of S. aureus were extracted and purified to obtain 50S ribosome. MRSA (ATCC 43300) was incubated overnight at 37 °C. The bacteria solution was inoculated into a new culture solution, and cells were collected at an OD600 = 1.5. The bacterial culture was centrifuged 3 times at 3,500 rpm using a TX-400 rotor at 4 °C for 30 min, and then the supernatant was discarded. Cells were washed twice with 10 mM Tris-HCl (pH = 7.5), and suspend the precipitate with buffer A (20 mM HEPES-HCl pH = 7.5, 100 mM NH4Cl, 21 mM Mg(OAc)2, 1 mM EDTA, 1 mM DTT). Cells were lysed by repeated (>3×) snap-freezing and thawing, then ultrasonic disintegration was performed. To remove cell debris, the crushed product was centrifuged at 20,000 rpm for 90 min at 4 °C.The lysate layered on 15 ml of a sucrose cushion (10 mM HEPES-HCl pH = 7.5, 500 mM KCl, 25 mM Mg(OAc)2, 1.1 M sucrose, 0.5 mM EDTA, 1 mM DTT) and centrifuged in the ultracentrifuge(Optima^TM TL 100) at 45,000 rpm using a type70Ti rotor at 4 °C for 15 h to obtain ribosomal particles. Pellet was resuspended in 3 ml of buffer E (10 mM HEPES-HCl pH = 7.5, 100 mM KCl, 1 mM Mg(OAc)2, 0.5 mM EDTA, 1 mM DTT), then layered on 9 ml of 7–30% sucrose gradient and ultracentrifuged at 17,100 rpm using a typeSW40Ti rotor at 4 °C for 15 h. The gradient was analysed on the AKTA explorer system. The fractions corresponding to 50S ribosome were collected and PEG 20000 was added to a final concentration of 4.5% w/v. Ribosomes were pelleted by centrifugation at 20,000 rpm for 12 min, the pellet was gently dissolved in 200 µL of storage buffer (10 mM HEPES-HCl pH = 7.5, 15 mM KCl, 60 mM NH4Cl, 10 mM Mg(OAc)2, 1 mM DTT) and then flash-frozen for storage at −80 °C.
Dilute these compounds to a concentration of 10 mM with DMSO as the stationary phase printing working solution. After that, the printing working solution was printed on the sensor chip by the array printer, and each sample was printed four times repeatedly. Four groups of positive control dots (12 rapamycin dots, 3 in each corner) were printed on the four corners of the sensor chip respectively. The sample dots were dried in vacuum, and the sensor chip was quickly transferred to the UV spectroirradiator for a photo-cross-linking reaction. Subsequently, the sensor chip was washed with DMF, methanol, and water for 15 min in turn, followed by blowing dry under nitrogen, and then assembled with Flowcell Cover.
The binding studies were performed with PBST running buffer (pH = 7.4, 0.1% Tween 20) at a constant flow rate of 0.5 µL/s in instrument. 50S Ribosome was diluted separately with PBST running buffer to 200 nM, 400 nM, 800 nM, 1600 nM and 3200 nM and injected consecutively for 600 s at associating stage, followed by running buffer for 360 s at each dissociating stage. […]

S. aureus 144 = experiment: MIC/MBC by broth micro dilution; type: cell-based; settings: Staphylococcus aureus, S. aureus 144 (clinical strain); for MIC: 37 °C, 24 h; for MBC: lowest concentration reducing viable counts by 99.9%
Procedure: as §1, §2, §3

S. aureus AD3 = experiment: MIC/MBC by broth micro dilution; type: cell-based; settings: Staphylococcus aureus, S. aureus AD3 (clinical strain); for MIC: 37 °C, 24 h; for MBC: lowest concentration reducing viable counts by 99.9%
Procedure: as §1, §2, §3

S. aureus ATCC 29213 = experiment: MIC/MBC by broth micro dilution; type: cell-based; settings: Staphylococcus aureus; for MIC: ATCC29213, 37 °C, 24 h; for MBC: ATCC29213, lowest concentration reducing viable counts by 99.9%
Procedure: as §1, §2, §3

[3] = Staphylococcus aureus, read-out: MIC
[4] = 4 °C, PBST pH 7.4, KD = Kd/Ka, read-out: KD (equilibrium dissociation constant)

| SMILES | MIC (MRSA ATCC 43300 [1]; [3]) [µg/mL] | MBC (MRSA ATCC 43300 [1]; Staphylococcus aureus) [µg/mL] | time-kill kinetics result (MRSA ATCC 43300 [2]) | concentration giving a bactericidal effect (MRSA ATCC 43300 [2]) | Kd (50S ribosome; [4]) [µM] | Ka (association rate constant) (50S ribosome; 4 °C) [M⁻¹ s⁻¹] | Kd (dissociation rate constant) (50S ribosome; 4 °C) [s⁻¹] | Kd (50S ribosome; read-out: interaction intensity level for 50S ribosome (KD class)) [µM] | MIC (S. aureus 144) [µg/mL] | MBC (S. aureus 144) [µg/mL] | MIC (S. aureus AD3) [µg/mL] | MBC (S. aureus AD3) [µg/mL] | MIC (S. aureus ATCC 29213) [µg/mL] | MBC (S. aureus ATCC 29213) [µg/mL] | MIC (MRSA ATCC 43300 [1]) [µg/mL] | MRSA killing, log10 CFU/mL reduction (MRSA ATCC 43300 [2]; 16 × MIC, after 3 h incubation) [log10 CFU/mL] | bacterial growth inhibition, log10 CFU/mL reduction (MRSA ATCC 43300 [2]; 16 × MIC, at 24 h) [log10 CFU/mL] |
| --- | --- | --- | --- | --- | --- | --- | --- | --- | --- | --- | --- | --- | --- | --- | --- | --- | --- |
| C=C[C@]1(C)C[C@@H](OC(=O)Cn2cc(CN3CCN(c4ccccc4[N+](=O)[O-])CC3)nn2)[C@]2(C)[C@H](C)CC[C@]3(CCC(=O)[C@H]32)[C@@H](C)[C@@H]1O [Compound 62, 22-(2-(4-(4-(2-Nitrophenyl)-piperazin-1-yl)-methyl)-1H-1,2,3-triazol-1-yl)-22-deoxy pleuromutilin] | 1 (≈ 1.54 µM) | 2 (≈ 3.08 µM) | relatively anti-MRSA bacteriostatic kinetics | higher than 4 × MIC | 17.7 | 734 | 0.013 | 10 to 1000 | 2 (≈ 3.08 µM) | 4 (≈ 6.17 µM) | 1 (≈ 1.54 µM) | 4 (≈ 6.17 µM) | 2 (≈ 3.08 µM) | 2 (≈ 3.08 µM) |  |  |  |
| C=C[C@]1(C)C[C@@H](OC(=O)Cn2cc(CN3CCN(c4ccccc4C)CC3)nn2)[C@]2(C)[C@H](C)CC[C@]3(CCC(=O)[C@H]32)[C@@H](C)[C@@H]1O [Compound 50, 22-(2-(4-(4-(o-Tolyl)-piperazin-1-yl)-methyl)-1H-1,2,3-triazol-1-yl)-22-deoxy pleuromutilin] | 1 (≈ 1.62 µM) | 2 (≈ 3.24 µM) | relatively anti-MRSA bacteriostatic kinetics | higher than 4 × MIC | 0.0232 | 170 | 3.93e-06 |  | 4 (≈ 6.47 µM) | 4 (≈ 6.47 µM) | 2 (≈ 3.24 µM) | 4 (≈ 6.47 µM) | 1 (≈ 1.62 µM) | 2 (≈ 3.24 µM) |  |  |  |
| C=C[C@]1(C)C[C@@H](OC(=O)Cn2cc(CN3CCN(c4ccc([N+](=O)[O-])cc4)CC3)nn2)[C@]2(C)[C@H](C)CC[C@]3(CCC(=O)[C@H]32)[C@@H](C)[C@@H]1O [Compound 64, 22-(2-(4-(4-(4-Nitrophenyl)-piperazin-1-yl)-methyl)-1H-1,2,3-triazol-1-yl)-22-deoxy pleuromutilin] | 0.5 (≈ 0.771 µM) | 1 (≈ 1.54 µM) |  | higher than 4 × MIC | 0.636 | 1200 | 0.000764 |  | 2 (≈ 3.08 µM) | 4 (≈ 6.17 µM) | 1 (≈ 1.54 µM) | 4 (≈ 6.17 µM) | 1 (≈ 1.54 µM) | 2 (≈ 3.08 µM) | 0.5 (≈ 0.771 µM) | 2.21 | 4.49 |
| C=C[C@]1(C)C[C@@H](OC(=O)Cn2cc(CN3CCN(c4ccccc4F)CC3)nn2)[C@]2(C)[C@H](C)CC[C@]3(CCC(=O)[C@H]32)[C@@H](C)[C@@H]1O [Compound 53, 22-(2-(4-(4-(2-Fluorophenyl)-piperazin-1-yl)-methyl)-1H-1,2,3-triazol-1-yl)-22-deoxy pleuromutilin] | 2 (≈ 3.22 µM) | 4 (≈ 6.43 µM) |  |  | 51 |  | 0.00403 |  | 8 (≈ 12.9 µM) | 8 (≈ 12.9 µM) | 4 (≈ 6.43 µM) | 8 (≈ 12.9 µM) | 4 (≈ 6.43 µM) | 8 (≈ 12.9 µM) |  |  |  |
